From patent publication US20230088286A1, “USP7 INHIBITOR FOR USE IN THE TREATMENT OF CANCER” (ALMAC DISCOVERY LIMITED, priority 2020, published 2023)
Residues, ends and D or L forms follow the SMILES beside them. *: point of attachment. Cbz = O=C(OCc1ccccc1)*

How the values were obtained:
[1] = tested on: primary human fibroblasts (HDF) in hypoxic chamber; test: sVEGF ELISA in primary fibroblasts under hypoxia; assay type: cell-based; details: 48 h
Text: FIG. 9: USP7 inhibition decreases VEGF levels in fibroblasts under hypoxia.
In response to wounding and during tumour growth, activated fibroblasts secrete synthesizers and modifiers of the ECM but also soluble angiogenic growth factors such as VEGF. Although VEGF gene expression can be controlled by multiple transcription factors, its major regulator is hypoxia-inducible factor 1 (HIF-1). HIF-1 mediates activation of VEGF transcription in response to hypoxia in solid tumours and in various malignant cell lines.
To assess its potency in a functional assay, HDF were treated with vehicle or various concentrations of USP7 inhibitor ADC-159 and incubated for 48 hours in hypoxic chamber. Cell culture supernatants were collected, and secreted VEGF was measured by ELISA.
(§1) For the co-culture experiments, 5×10^4 cancer cells were seeded in transwell in 0.5 mL complete growth medium and placed on the top of 0.1×10^6 fibroblasts plated in 12-well in 1 mL low serum growth media overnight. Following day cancer cells were washed with PBS and media replaced with reduced (1%) serum growth media. 0.5×10^6 PBMC were plated on top of fibroblasts, incubated for 45 min and activated with CD3 (1 μg/ml final concentration) and CD28 (5 μg/ml final concentration). […] Monoculture experiments, 0.1×10^6 cells were seeded in 12-well in 1 mL of complete growth media (cancer cells) or low serum growth media (fibroblasts) and incubated overnight. […] Afterwards, cell culture media was collected, cell debris were removed by centrifugation the concentration of VEGF in the cell culture supernatants was measured using the human/mouse VEGF immunoassay Quantikine ELISA kit (R&D systems, Minneapolis, Minn., USA) according to the manufacturer's instructions. For the intracellular VEGF detection, total protein concentration was determined by BCA (Pierce Chemical, USA) and VEGF levels determined using the same kit described above.

HIF-1α = test: Ubiquitination assay, TUBE pull-down of polyubiquitinated HIF-1α; assay type: cell-based, human; details: HDF, hypoxia; AD-04 1 μM, MG132 10 μM, 1 hour
Experimental: Given HIF-1α stability is known to be regulated at the protein level by ubiquitination, we investigated whether USP7 inhibition modulates HIF-1α polyubiquitination. […] Cells were harvested, lysed and polyubiquitinated proteins pulled down using two types of Tetra Ubiquitin Binding Entities (TUBES); with equal affinity for K48/K63 or 10 times more affinity for […]. Samples were analysed by immuno-blot using a HIF-1α antibody. […] These findings indicate that USP7 inhibition results in K48 polyubiquitination of HIF-1α and consequently, its proteasomal-mediated degradation.
Cells were lysed in a buffer containing 50 mM Tris-HCl, pH 7.5, 150 mM NaCl, 1 mM EDTA, 1% NP-40, 10% Glycerol, 50 mM NaF, 5 mM sodium pyrophosphate, 10 mM glycerol phosphate, 1 mM sodium orthovanadate, protease and phosphatase inhibitor tablet and 50 uM PR-619. Lysates were pre-cleared by centrifugation at 4° C. for 15 mins at 16,000× g and protein concentration determined using BCA method. 20 ul of samples was taken as input. Pre-cleared supernatant containing 0.5 mg of total protein was added to 20 ul equilibrated Agarose-TUBE 1 or TUBE 2 beads (Life Sensors) and incubated for 2 hours at 4° C. on a rocker platform. Beads were collected by low speed centrifugation (1000-5000× g, 4° C.) for 5 minutes and supernatant taken as FT. Beads were washed twice with 1 ml TBS-T (20 mM Tris-HCl, pH 8.0, 0.15M NaCl, 0.1% Tween-20) and collected by low speed centrifugation. Finally, beads were resuspended in 30 ul of SDS reducing sample buffer and boiled for 10 min at 95° C.

[2] = tested on: activated primary fibroblasts WI38, IMR90 and HDF; test: sVEGF ELISA in activated primary fibroblasts; assay type: cell-based, human; details: cancer cells, immortalized fibroblasts and FGF-2 activated primary fibroblasts, normoxia or hypoxia, 48 hours
Text: FIG. 5: USP7 inhibition decreased secreted VEGF levels in activated fibroblasts. The USP7-mediated decrease in VEGF secretion observed in the co-cultures can be solely attributed to modulation of secreted VEGF in primary fibroblasts.
(FIG. 4). […] During the wound healing process or following stimulation by acute or chronic inflammatory signals, fibroblasts acquire an activated phenotype (referred to as myofibroblasts). Once activated, myofibroblasts proliferate and migrate, show contractile activity, exert physical forces to modify tissue architecture and become transcriptionally active leading to the secretion of cytokines, chemokines and extra-cellular matrix (ECM) components. In the tumour microenvironment, the majority of residual fibroblasts become activated and are known as cancer associated fibroblasts (CAF). In order to generate a myofibroblast phenotype, WI38, IMR90 and HDF were co-cultured with anti-CD3/anti-CD28 stimulated PBMCs or were stimulated by FGF-2 or TGFβ. […] The USP7 inhibitor-mediated decrease in VEGF secretion was only observed in primary fibroblasts; immortalized lung fibroblasts (WI38-VA13) were insensitive to USP7 inhibitor treatment, probably due to the destabilized p53 in the SV-40 immortalized fibroblasts (FIG. 7).
as §1

[3] = tested on: CT-26 cells in BALB/C mice; test: CT-26 syngeneic tumour model (AD-04 study)
Experimental: FIG. 30: Effect of USP7 on the tumour microenvironment in vivo.
For subcutaneous tumour implantation, CT26 cells were injected subcutaneously (1×10^6cells in 200 μL of RPMI) in the right flank of 8- to 10-week-old BALB/c female mice. […] Tumour volume (in mm^3) was measured twice a week with a digital caliper and calculated by the following formula: volume=(width)^2×length/2. Body weight was measured twice a week. […]

MMP-7 = MMP-7 in supernatants of HDF invasion assay (Luminex); assay type: cell-based, human; details: invading HDF, 96 hours
Experimental: The scratch wound cell invasion assay was used to measure the ability of primary human fibroblasts to invade through Matrigel® basement membrane. Cell culture supernatants from invasion assay were collected after 96 hours and MMP-7 levels were measured using Luminex®.
To further explore whether USP7 inhibition modulates MMP levels in invading fibroblasts, cell culture supernatants from HDF invasion assay were collected and presence of various MMP was detected using Luminex® Multiplex assay.
(§2) Concentrations of MMP2 and MMP7 were determined in cell culture supernatants in triplicates using Luminex human cytokine/chemokine multiplex kits (Millipore, St. Charles, Mo., USA) according to the manufacturer's protocol.

MMP-2 = MMP-2 in supernatants of HDF and HUVEC co-culture (Luminex); assay type: cell-based, human; details: supernatants after 14 days
Experimental: Cell culture supernatants from tube formation were collected and MMP-2 levels were measured using Luminex®.
Next, the underlying mechanism of tube formation inhibition was investigated. […] To determine whether secretion of MMP-2 is modulated by USP7 inhibition, supernatants from HUVEC and HDF co-cultures were collected after 14 days.
as §2

| Compound | VEGF secretion under hypoxia [1] | secretion of VEGF (benchmark against MDM2 antagonists) [2] | other results |
| --- | --- | --- | --- |
| O=C(c1cnc(C2CC2)o1)N1CCC(O)(Cn2cnc3c(cc(Cl)n3-c3ccc4c(c3)CCO4)c2=O)CC1 [ADC-160, 6-Chloro-3-((1-(2-cyclopropyloxazole-5-carbonyl)-4-hydroxypiperidin-4-yl)methyl)-7-(2,3-dihydrobenzofuran-5-yl)-3,7-dihydro-4H-pyrrolo[2,3-d]pyrimidin-4-One] | Comparable results |  |  |
| CC1(C(=O)N2CCC(O)(Cn3cnc4c(cc(Cl)n4-c4ccc5c(c4)OCC5)c3=O)CC2)CC1 [ADC-198, 6-Chloro-7-(2,3-dihydrobenzofuran-6-yl)-3-[[4-hydroxy-1-(1-methylcyclopropanecarbonyl)-4-piperidyl]methyl]pyrrolo[2,3-d]pyrimidin-4-One] | Comparable results |  |  |
| O=C(c1cnc(C2CC2)o1)N1CCC(O)(Cn2cnc3c(cc(Cl)n3-c3ccc4c(c3)OCC4)c2=O)CC1 [ADC-199, 6-Chloro-3-((1-(2-cyclopropyloxazole-5-carbonyl)-4-hydroxypiperidin-4-yl)methyl)-7-(2,3-dihydrobenzofuran-6-yl)-3,7-dihydro-4H-pyrrolo[2,3-d]pyrimidin-4-One] | Comparable results |  |  |
| CC1(C(=O)N2CCC(O)(Cn3cnc4c(cc(Cl)n4-c4ccc5c(c4)OCO5)c3=O)CC2)CC1 [ADC-556, 7-(Benzo[d][1,3]dioxol-5-yl)-6-chloro-3-((4-hydroxy-1-(1-methylcyclopropane-1-carbonyl)piperidin-4-yl)methyl)-3,7-dihydro-4H-pyrrolo[2,3-d]pyrimidin-4-One] | Comparable results |  |  |
| CC(C)C[C@@H](C=O)NC(=O)[C@H](CC(C)C)NC(=O)[C@H](CC(C)C)NC(=O)OCc1ccccc1 [MG132, reference compound] (Cbz-Leu-Leu-Leu-aldehyde) |  |  | K63/K48 polyubiquitinated HIF-1α (HIF-1α): increased polyubiquitination |
| COc1ccc(C2=N[C@@H](c3ccc(Cl)cc3)[C@@H](c3ccc(Cl)cc3)N2C(=O)N2CCNC(=O)C2)c(OC(C)C)c1 [Nutlin-3a] |  | not able to modulate |  |
| CCOc1cc(C(C)(C)C)ccc1C1=N[C@@](C)(c2ccc(Cl)cc2)[C@@](C)(c2ccc(Cl)cc2)N1C(=O)N1CCN(CCCS(C)(=O)=O)CC1 [RG7112] |  | not able to modulate |  |
| CC(C)(C)C[C@@H]1N[C@@H](C(=O)N[C@H]2CC[C@H](O)CC2)[C@H](c2cccc(Cl)c2F)[C@]12C(=O)Nc1cc(Cl)ccc12 [SAR405838] |  | not able to modulate |  |
| CNC(=O)c1cc(Oc2ccc(NC(=O)Nc3ccc(Cl)c(C(F)(F)F)c3)cc2)ccn1 [Sorafenib, reference compound] |  |  | tumour growth inhibition ([3]; highest AD-04 dose (subcutaneous infusion), Sorafenib oral positive control, day 15 post tumour implantation): 58%; tolerability, bodyweight of tumour-bearing mice ([3]; mouse, in vivo): no significant bodyweight loss |
| Avastin: anti-VEGF monoclonal antibody bevacizumab [reference compound] |  |  | MMP-7 levels (MMP-7): did not have significant effect; MMP-2 levels (MMP-2): did not have significant impact |
